Calls of active or inactive are those of the source. How the calls were made is not given here.
System: CCRIS mutagenicity, Ames/micronucleus/aberration tests
Test: CCRIS mutagenicity studies
Conditions: Test System: AMES SALMONELLA TYPHIMURIUM
[1] = Strain/Indicator: TA98, Metabolic Activation: NONE, Method: STANDARD PLATE
[2] = Strain/Indicator: TA100, Metabolic Activation: NONE, Method: STANDARD PLATE

Measured: mutagenic call

CN(C)N=Nc1ccc(Br)cc1
active: Strain/Indicator: TA98, Metabolic Activation: MOUSE, LIVER, S-9, POLYCHLORINATED BIPHENYLS, Method: PREINCUBATION active; positive | Strain/Indicator: TA1535, Metabolic Activation: MOUSE, LIVER, S-9, POLYCHLORINATED BIPHENYLS, Method: PREINCUBATION active; positive | Strain/Indicator: TA1537, Metabolic Activation: MOUSE, LIVER, S-9, POLYCHLORINATED BIPHENYLS, Method: PREINCUBATION active; positive | Strain/Indicator: TA1537, Metabolic Activation: MOUSE, LIVER, S-9, POLYCHLORINATED BIPHENYLS, Method: STANDARD PLATE active; positive | Strain/Indicator: TA1537, Metabolic Activation: NONE, Method: STANDARD PLATE active; positive | Strain/Indicator: TA1538, Metabolic Activation: MOUSE, LIVER, S-9, POLYCHLORINATED BIPHENYLS, Method: STANDARD PLATE active; positive
inactive: Strain/Indicator: TA92, Metabolic Activation: MOUSE, LIVER, S-9, POLYCHLORINATED BIPHENYLS, Method: PREINCUBATION inactive; negative | Strain/Indicator: TA92, Metabolic Activation: MOUSE, LIVER, S-9, POLYCHLORINATED BIPHENYLS, Method: STANDARD PLATE inactive; negative | Strain/Indicator: TA92, Metabolic Activation: NONE, Method: STANDARD PLATE inactive; negative | Strain/Indicator: TA97, Metabolic Activation: MOUSE, LIVER, S-9, POLYCHLORINATED BIPHENYLS, Method: PREINCUBATION inactive; negative | Strain/Indicator: TA97, Metabolic Activation: MOUSE, LIVER, S-9, POLYCHLORINATED BIPHENYLS, Method: STANDARD PLATE inactive; negative | Strain/Indicator: TA97, Metabolic Activation: NONE, Method: STANDARD PLATE inactive; negative | Strain/Indicator: TA98, Metabolic Activation: MOUSE, LIVER, S-9, POLYCHLORINATED BIPHENYLS, Method: STANDARD PLATE inactive; negative | [1] inactive; negative | Strain/Indicator: TA100, Metabolic Activation: MOUSE, LIVER, S-9, POLYCHLORINATED BIPHENYLS, Method: PREINCUBATION inactive; negative | Strain/Indicator: TA100, Metabolic Activation: MOUSE, LIVER, S-9, POLYCHLORINATED BIPHENYLS, Method: STANDARD PLATE inactive; negative | [2] inactive; negative | Strain/Indicator: TA1535, Metabolic Activation: MOUSE, LIVER, S-9, POLYCHLORINATED BIPHENYLS, Method: STANDARD PLATE inactive; negative | Strain/Indicator: TA1535, Metabolic Activation: NONE, Method: STANDARD PLATE inactive; negative | Strain/Indicator: TA1538, Metabolic Activation: MOUSE, LIVER, S-9, POLYCHLORINATED BIPHENYLS, Method: PREINCUBATION inactive; negative | Strain/Indicator: TA1538, Metabolic Activation: NONE, Method: STANDARD PLATE inactive; negative

Cc1ccc(C)o1
inactive: Strain/Indicator: TA97, Metabolic Activation: HAMSTER, LIVER, S-9, AROCLOR 1254 (10%), Method: PREINCUBATION inactive; negative | Strain/Indicator: TA97, Metabolic Activation: HAMSTER, LIVER, S-9, AROCLOR 1254 (30%), Method: PREINCUBATION inactive; negative | Strain/Indicator: TA97, Metabolic Activation: NONE, Method: PREINCUBATION inactive; negative | Strain/Indicator: TA97, Metabolic Activation: RAT, LIVER, S-9, AROCLOR 1254 (10%), Method: PREINCUBATION inactive; negative | Strain/Indicator: TA97, Metabolic Activation: RAT, LIVER, S-9, AROCLOR 1254 (30%), Method: PREINCUBATION inactive; negative | Strain/Indicator: TA98, Metabolic Activation: HAMSTER, LIVER, S-9, AROCLOR 1254 (10%), Method: PREINCUBATION inactive; negative | Strain/Indicator: TA98, Metabolic Activation: HAMSTER, LIVER, S-9, AROCLOR 1254 (30%), Method: PREINCUBATION inactive; negative | Strain/Indicator: TA98, Metabolic Activation: NONE, Method: PREINCUBATION inactive; negative | [1] inactive; negative | Strain/Indicator: TA98, Metabolic Activation: RAT, LIVER, S-9, AROCLOR 1254 (10%), Method: PREINCUBATION inactive; negative | Strain/Indicator: TA98, Metabolic Activation: RAT, LIVER, S-9, AROCLOR 1254 (30%), Method: PREINCUBATION inactive; negative | Strain/Indicator: TA98, Metabolic Activation: S-9, Method: STANDARD PLATE inactive; negative | Strain/Indicator: TA100, Metabolic Activation: HAMSTER, LIVER, S-9, AROCLOR 1254 (10%), Method: PREINCUBATION inactive; negative | Strain/Indicator: TA100, Metabolic Activation: HAMSTER, LIVER, S-9, AROCLOR 1254 (30%), Method: PREINCUBATION inactive; negative | Strain/Indicator: TA100, Metabolic Activation: NONE, Method: PREINCUBATION inactive; negative | [2] inactive; negative | Strain/Indicator: TA100, Metabolic Activation: RAT, LIVER, S-9, AROCLOR 1254 (10%), Method: PREINCUBATION inactive; negative | Strain/Indicator: TA100, Metabolic Activation: RAT, LIVER, S-9, AROCLOR 1254 (30%), Method: PREINCUBATION inactive; negative | Strain/Indicator: TA100, Metabolic Activation: S-9, Method: STANDARD PLATE inactive; negative | Strain/Indicator: TA1535, Metabolic Activation: HAMSTER, LIVER, S-9, AROCLOR 1254 (10%), Method: PREINCUBATION inactive; negative | Strain/Indicator: TA1535, Metabolic Activation: HAMSTER, LIVER, S-9, AROCLOR 1254 (30%), Method: PREINCUBATION inactive; negative | Strain/Indicator: TA1535, Metabolic Activation: NONE, Method: PREINCUBATION inactive; negative | Strain/Indicator: TA1535, Metabolic Activation: RAT, LIVER, S-9, AROCLOR 1254 (10%), Method: PREINCUBATION inactive; negative | Strain/Indicator: TA1535, Metabolic Activation: RAT, LIVER, S-9, AROCLOR 1254 (30%), Method: PREINCUBATION inactive; negative
